The text below walks through data of BindingDB's records for PubMed 33314936 (n/a, 2020).

pIC50: −log10 of the molar value.

This assay is described as follows: Agonist activity at human PGI2 receptor assessed as inhibition of ADP-induced platelet aggregation.

By pIC50 is commonly meant the negative decadic logarithm of the IC50, by convention in mol/L. For the compound `CC(C)N(CCCCOCC(=O)NS(C)(=O)=O)c1cnc(-c2ccccc2)c(-c2ccccc2)n1` [ACT-293987], the pIC50 is 5.19.
